≈ marks a conversion by molar mass, not a printed value.
Each molecule was assayed on Vero (assay: Minimum inhibitory concentration required to reduce virus induced cytopathicity by 50% was determined against parainfluenza 3 virus in Vero cells). Details: Chlorocebus sabaeus.
Type: functional, Homo sapiens

| SMILES | MIC [µg/mL] |
| --- | --- |
| Nc1nc(O)c2ncn(C3C[C@H](O)[C@H](O)[C@@H]3O)c2n1 (some centres not stated) | > 200 |
| NC(CCS)C(=O)Nc1ncnc2c1ncn2C1O[C@H](CO)[C@@H](O)[C@H]1O (some centres not stated) | 0.7 (≈ 1.82 µM) |

What follows are molecules tested on E6SM (assay: Minimum inhibitory concentration required to reduce virus induced cytopathicity by 50% was determined against HSV-1 virus in E6SM cells). Details: Homo sapiens.
Type: functional

| SMILES | MIC [µg/mL] |
| --- | --- |
| Nc1nc(O)c2ncn(C3C[C@H](O)[C@H](O)[C@@H]3O)c2n1 (some centres not stated) | 300 (≈ 1120 µM) |
| NC(CCS)C(=O)Nc1ncnc2c1ncn2C1O[C@H](CO)[C@@H](O)[C@H]1O (some centres not stated) | > 400 |

Each molecule was assayed on HeLa (assay: Minimum inhibitory concentration required to reduce virus induced cytopathicity by 50% was determined against vesicular stomatitis virus in HeLa cells). Details: Homo sapiens.
Type: functional

| SMILES | MIC [µg/mL] |
| --- | --- |
| Nc1nc(O)c2ncn(C3C[C@H](O)[C@H](O)[C@@H]3O)c2n1 (some centres not stated) | > 400 |
| NC(CCS)C(=O)Nc1ncnc2c1ncn2C1O[C@H](CO)[C@@H](O)[C@H]1O (some centres not stated) | 2 (≈ 5.2 µM) |

Each molecule was assayed on Vero (assay: Minimum inhibitory concentration required to reduce virus induced cytopathicity by 50% was determined against semliki forest virus in Vero cells). Details: Chlorocebus sabaeus.
Type: functional

| SMILES | MIC [µg/mL] |
| --- | --- |
| Nc1nc(O)c2ncn(C3C[C@H](O)[C@H](O)[C@@H]3O)c2n1 (some centres not stated) | > 200 |
| NC(CCS)C(=O)Nc1ncnc2c1ncn2C1O[C@H](CO)[C@@H](O)[C@H]1O (some centres not stated) | > 400 |

These molecules were tested on Vero (assay: Minimum inhibitory concentration required to reduce virus induced cytopathicity by 50% was determined against reo type 1 virus in Vero cells). Details: Chlorocebus sabaeus.
Type: functional

| SMILES | MIC [µg/mL] |
| --- | --- |
| Nc1nc(O)c2ncn(C3C[C@H](O)[C@H](O)[C@@H]3O)c2n1 (some centres not stated) | > 200 |
| NC(CCS)C(=O)Nc1ncnc2c1ncn2C1O[C@H](CO)[C@@H](O)[C@H]1O (some centres not stated) | 2 (≈ 5.2 µM) |

What follows are molecules tested on Vero (assay: Minimum inhibitory concentration required to reduce virus induced cytopathicity by 50% was determined against measles virus in Vero cells). Details: Chlorocebus sabaeus.
Type: functional

| SMILES | MIC [µg/mL] |
| --- | --- |
| Nc1nc(O)c2ncn(C3C[C@H](O)[C@H](O)[C@@H]3O)c2n1 (some centres not stated) | > 100 |

These molecules were tested on HEL (assay: Minimum inhibitory concentration required to reduce virus induced cytopathicity by 50% was determined against TK- VZV virus in HEL cells). Details: Homo sapiens.
Type: functional

| SMILES | MIC [µg/mL] |
| --- | --- |
| Nc1nc(O)c2ncn(C3C[C@H](O)[C@H](O)[C@@H]3O)c2n1 (some centres not stated) | 235 (≈ 879 µM) |

What follows are molecules tested on Vero (assay: Minimum inhibitory concentration required to reduce virus induced cytopathicity by 50% was determined against junin virus in Vero cells). Details: Chlorocebus sabaeus.
Type: functional

| SMILES | MIC [µg/mL] |
| --- | --- |
| Nc1nc(O)c2ncn(C3C[C@H](O)[C@H](O)[C@@H]3O)c2n1 (some centres not stated) | > 100 |
| NC(CCS)C(=O)Nc1ncnc2c1ncn2C1O[C@H](CO)[C@@H](O)[C@H]1O (some centres not stated) | 2 (≈ 5.2 µM) |

These molecules were tested on HeLa (assay: Minimum inhibitory concentration required to reduce virus induced cytopathicity by 50% was determined against coxsackie B4 virus in HeLa cells). Details: Homo sapiens.
Type: functional

| SMILES | MIC [µg/mL] |
| --- | --- |
| Nc1nc(O)c2ncn(C3C[C@H](O)[C@H](O)[C@@H]3O)c2n1 (some centres not stated) | > 400 |
| NC(CCS)C(=O)Nc1ncnc2c1ncn2C1O[C@H](CO)[C@@H](O)[C@H]1O (some centres not stated) | > 400 |

What follows are molecules tested on HeLa (assay: Minimum inhibitory concentration required to reduce virus induced cytopathicity by 50% was determined against polio 1 virus in HeLa cells). Details: Homo sapiens.
Type: functional

| SMILES | MIC [µg/mL] |
| --- | --- |
| Nc1nc(O)c2ncn(C3C[C@H](O)[C@H](O)[C@@H]3O)c2n1 (some centres not stated) | > 200 |
| NC(CCS)C(=O)Nc1ncnc2c1ncn2C1O[C@H](CO)[C@@H](O)[C@H]1O (some centres not stated) | > 400 |

The molecules below were run on E6SM (assay: Minimum inhibitory concentration required to reduce virus induced cytopathicity by 50% was determined against vesicular stomatitis virus in E6SM cells). Details: Homo sapiens.
Type: functional

| SMILES | MIC [µg/mL] |
| --- | --- |
| Nc1nc(O)c2ncn(C3C[C@H](O)[C@H](O)[C@@H]3O)c2n1 (some centres not stated) | > 400 |
| NC(CCS)C(=O)Nc1ncnc2c1ncn2C1O[C@H](CO)[C@@H](O)[C@H]1O (some centres not stated) | 0.7 (≈ 1.82 µM) |

These molecules were tested on Vero (assay: Minimum inhibitory concentration required to reduce virus induced cytopathicity by 50% was determined against tacaribe virus in Vero cells). Details: Chlorocebus sabaeus.
Type: functional, Homo sapiens

| SMILES | MIC [µg/mL] |
| --- | --- |
| Nc1nc(O)c2ncn(C3C[C@H](O)[C@H](O)[C@@H]3O)c2n1 (some centres not stated) | > 100 |
| NC(CCS)C(=O)Nc1ncnc2c1ncn2C1O[C@H](CO)[C@@H](O)[C@H]1O (some centres not stated) | 2 (≈ 5.2 µM) |

What follows are molecules tested on HeLa (assay: Minimum inhibitory concentration required to reduce virus induced cytopathicity by 50% was determined against respiratory syncytial virus in HeLa cells). Details: Homo sapiens.
Type: functional

| SMILES | MIC [µg/mL] |
| --- | --- |
| Nc1nc(O)c2ncn(C3C[C@H](O)[C@H](O)[C@@H]3O)c2n1 (some centres not stated) | > 100 |

The molecules below were run on HEL (assay: Minimum inhibitory concentration required to reduce virus induced cytopathicity by 50% was determined against VZV virus in HEL cells). Details: Homo sapiens.
Type: functional

| SMILES | MIC [µg/mL] |
| --- | --- |
| Nc1nc(O)c2ncn(C3C[C@H](O)[C@H](O)[C@@H]3O)c2n1 (some centres not stated) | 225 (≈ 842 µM) |

Each molecule was assayed on MDCK (assay: Minimum inhibitory concentration required to reduce virus induced cytopathicity by 50% was determined against influenza A virus in MDCK cells). Details: Canis lupus familiaris.
Type: functional

| SMILES | MIC [µg/mL] |
| --- | --- |
| Nc1nc(O)c2ncn(C3C[C@H](O)[C@H](O)[C@@H]3O)c2n1 (some centres not stated) | > 100 |

Organism: Homo sapiens
Experiment: Minimum inhibitory concentration required to reduce virus induced cytopathicity by 50% was determined against HCMV virus in HEL cells
Type: functional
Details: not given

| SMILES | MIC [µg/mL] |
| --- | --- |
| Nc1nc(O)c2ncn(C3C[C@H](O)[C@H](O)[C@@H]3O)c2n1 (some centres not stated) | 250 (≈ 935 µM) |

Each molecule was assayed on E6SM (assay: Minimum inhibitory concentration required to reduce virus induced cytopathicity by 50% was determined against TK- HSV-1 virus in E6SM cells). Details: Homo sapiens.
Type: functional

| SMILES | MIC [µg/mL] |
| --- | --- |
| Nc1nc(O)c2ncn(C3C[C@H](O)[C@H](O)[C@@H]3O)c2n1 (some centres not stated) | > 300 |
| NC(CCS)C(=O)Nc1ncnc2c1ncn2C1O[C@H](CO)[C@@H](O)[C@H]1O (some centres not stated) | > 400 |

The molecules below were run on Vero (assay: Minimum inhibitory concentration required to reduce virus induced cytopathicity by 50% was determined against coxsackie B4 virus in Vero cells). Details: Chlorocebus sabaeus.
Type: functional

| SMILES | MIC [µg/mL] |
| --- | --- |
| Nc1nc(O)c2ncn(C3C[C@H](O)[C@H](O)[C@@H]3O)c2n1 (some centres not stated) | > 200 |
| NC(CCS)C(=O)Nc1ncnc2c1ncn2C1O[C@H](CO)[C@@H](O)[C@H]1O (some centres not stated) | > 100 |

These molecules were tested on MDCK (assay: Minimum inhibitory concentration required to reduce virus induced cytopathicity by 50% was determined against influenza B virus in MDCK cells). Details: Canis lupus familiaris.
Type: functional

| SMILES | MIC [µg/mL] |
| --- | --- |
| Nc1nc(O)c2ncn(C3C[C@H](O)[C@H](O)[C@@H]3O)c2n1 (some centres not stated) | > 100 |

The molecules below were run on E6SM (assay: Minimum inhibitory concentration required to reduce virus induced cytopathicity by 50% was determined against HSV-2 virus in E6SM cells). Details: Homo sapiens.
Type: functional

| SMILES | MIC [µg/mL] |
| --- | --- |
| Nc1nc(O)c2ncn(C3C[C@H](O)[C@H](O)[C@@H]3O)c2n1 (some centres not stated) | > 400 |
| NC(CCS)C(=O)Nc1ncnc2c1ncn2C1O[C@H](CO)[C@@H](O)[C@H]1O (some centres not stated) | > 400 |

What follows are molecules tested on E6SM (assay: Minimum inhibitory concentration required to reduce virus induced cytopathicity by 50% was determined against vaccinia virus in E6SM cells). Details: Homo sapiens.
Type: functional

| SMILES | MIC [µg/mL] |
| --- | --- |
| Nc1nc(O)c2ncn(C3C[C@H](O)[C@H](O)[C@@H]3O)c2n1 (some centres not stated) | > 400 |
| NC(CCS)C(=O)Nc1ncnc2c1ncn2C1O[C@H](CO)[C@@H](O)[C@H]1O (some centres not stated) | 2 (≈ 5.2 µM) |

What follows are molecules tested on Vero (assay: Minimum inhibitory concentration required to reduce virus induced cytopathicity by 50% was determined against sindbis virus in Vero cells). Details: Chlorocebus sabaeus.
Type: functional

| SMILES | MIC [µg/mL] |
| --- | --- |
| Nc1nc(O)c2ncn(C3C[C@H](O)[C@H](O)[C@@H]3O)c2n1 (some centres not stated) | > 200 |
| NC(CCS)C(=O)Nc1ncnc2c1ncn2C1O[C@H](CO)[C@@H](O)[C@H]1O (some centres not stated) | 20 (≈ 52 µM) |
